Assay results as given in patent publication EP2177209A1, “Intravenous solutions and uses” (priority 2008, dated 2010).
≈ marks a conversion by molar mass, not a printed value.

Columns and labels:
[1] = tested on: methicillin-resistant Staphylococcus aureus (MRSA)
[2] = tested on: methicillin-susceptible Staphylococcus aureus (MSSA)
[3] = tested on: methicillin-resistant Staphylococcus epidermidis (MRSE)
[4] = tested on: methicillin-susceptible Staphylococcus epidermidis (MSSE)
[5] = tested on: Streptococcus constellatus
Listeria monocytogenes = settings: 20 library strains
Escherichia coli = settings: 50 strains
Pseudomonas aeruginosa = settings: 50 strains
Haemophilus influenzae = settings: 70 strains
Moraxella catarrhalis = settings: 50 strains
Neisseria gonorrhoeae = settings: 20 library strains
Neisseria meningitidis = settings: 20 library strains
Helicobacter pylori = settings: 5 library strains
Bacteroides fragilis = settings: 20 library strains
Clostridium difficile = settings: 10 library strains
Clostridium perfringens = settings: 10 library strains

CCCCCCCCCC(=O)N[C@@H](Cc1c[nH]c2ccccc12)C(=O)N[C@H](CC(N)=O)C(=O)N[C@@H](CC(=O)O)C(=O)N[C@@H]1C(=O)NCC(=O)N[C@@H](CCCN)C(=O)N[C@@H](CC(=O)O)C(=O)N[C@H](C)C(=O)N[C@@H](CC(=O)O)C(=O)NCC(=O)N[C@H](CO)C(=O)N[C@@H]([C@H](C)CC(=O)O)C(=O)N[C@@H](CC(=O)c2ccccc2N)C(=O)O[C@@H]1C [Daptomycin, daptomycin]
MIC 50% [1]: 0.25 mg/L (≈ 0.154 µM) | MIC 90% [1]: 0.5 mg/L (≈ 0.309 µM) | MIC MAX [1]: 1 mg/L (≈ 0.617 µM) | MIC MIN [1]: 0.12 mg/L (≈ 0.074 µM) | MIC 50% [2]: 0.25 mg/L (≈ 0.154 µM) | MIC 90% [2]: 0.25 mg/L (≈ 0.154 µM) | MIC MAX [2]: 0.5 mg/L (≈ 0.309 µM) | MIC MIN [2]: 0.06 mg/L (≈ 0.037 µM) | MIC 50% [3]: 0.25 mg/L (≈ 0.154 µM) | MIC 90% [3]: 0.5 mg/L (≈ 0.309 µM) | MIC MAX [3]: 0.5 mg/L (≈ 0.309 µM) | MIC MIN [3]: 0.06 mg/L (≈ 0.037 µM) | MIC 50% [4]: 0.25 mg/L (≈ 0.154 µM) | MIC 90% [4]: 0.5 mg/L (≈ 0.309 µM) | MIC MAX [4]: 1 mg/L (≈ 0.617 µM) | MIC MIN [4]: 0.06 mg/L (≈ 0.037 µM) | MIC 50% (Group A Streptococci): ≤0.03 mg/L | MIC 90 (Group A Streptococci): 0.06 mg/L (≈ 0.037 µM) | MIC MAX (Group A Streptococci): 0.12 mg/L (≈ 0.074 µM) | MIC MIN (Group A Streptococci): ≤0.03 mg/L | MIC 50% (Group B Streptococci): 0.5 mg/L (≈ 0.309 µM) | MIC 90% (Group B Streptococci): 1 mg/L (≈ 0.617 µM) | MIC MAX (Group B Streptococci): 1 mg/L (≈ 0.617 µM) | MIC MIN (Group B Streptococci): 0.12 mg/L (≈ 0.074 µM) | MIC 50% (Group C Streptococci): 0.12 mg/L (≈ 0.074 µM) | MIC 90% (Group C Streptococci): 0.25 mg/L (≈ 0.154 µM) | MIC MAX (Group C Streptococci): 0.5 mg/L (≈ 0.309 µM) | MIC MIN (Group C Streptococci): ≤0.03 mg/L | MIC 50% [5]: 0.5 mg/L (≈ 0.309 µM) | MIC 90% [5]: 0.5 mg/L (≈ 0.309 µM) | MIC MAX [5]: 0.5 mg/L (≈ 0.309 µM) | MIC MIN [5]: 0.12 mg/L (≈ 0.074 µM) | MIC 50% (Streptococcus bovis): 0.06 mg/L (≈ 0.037 µM) | MIC 90% (Streptococcus bovis): 0.12 mg/L (≈ 0.074 µM) | MIC MAX (Streptococcus bovis): 0.12 mg/L (≈ 0.074 µM) | MIC MIN (Streptococcus bovis): ≤0.03 mg/L | MIC 50% (Streptococcus mitis): 0.5 mg/L (≈ 0.309 µM) | MIC 90% (Streptococcus mitis): 1 mg/L (≈ 0.617 µM) | MIC MAX (Streptococcus mitis): 1 mg/L (≈ 0.617 µM) | MIC MIN (Streptococcus mitis): 0.12 mg/L (≈ 0.074 µM) | MIC 50% (Streptococcus sanguis): 0.25 mg/L (≈ 0.154 µM) | MIC 90% (Streptococcus sanguis): 0.5 mg/L (≈ 0.309 µM) | MIC 90% (Streptococcus oralis): 2 mg/L (≈ 1.23 µM) | MIC MAX (Streptococcus oralis): 2 mg/L (≈ 1.23 µM) | MIC MIN (Streptococcus oralis): 0.25 mg/L (≈ 0.154 µM) | MIC 50% (Streptococcus pneumoniae): 0.12 mg/L (≈ 0.074 µM) | MIC 90% (Streptococcus pneumoniae): 0.5 mg/L (≈ 0.309 µM) | MIC MAX (Streptococcus pneumoniae): 0.5 mg/L (≈ 0.309 µM) | MIC MIN (Streptococcus pneumoniae): ≤0.03 mg/L | MIC 50% (Listeria monocytogenes): 1 mg/L (≈ 0.617 µM) | MIC 90% (Listeria monocytogenes): 2 mg/L (≈ 1.23 µM) | MIC MAX (Listeria monocytogenes): ≥128 mg/L | MIC MIN (Listeria monocytogenes): 0.015 mg/L (≈ 0.00926 µM) | MIC 50% (Escherichia coli): ≥128 mg/L | MIC 90% (Escherichia coli): ≥128 mg/L | MIC MAX (Escherichia coli): ≥128 mg/L | MIC MIN (Escherichia coli): ≥128 mg/L | MIC 50% (Pseudomonas aeruginosa): ≥128 mg/L | MIC 90% (Pseudomonas aeruginosa): ≥128 mg/L | MIC MAX (Pseudomonas aeruginosa): ≥128 mg/L | MIC MIN (Pseudomonas aeruginosa): ≥128 mg/L | MIC 50% (Haemophilus influenzae): ≥128 mg/L | MIC 90% (Haemophilus influenzae): ≥128 mg/L | MIC MAX (Haemophilus influenzae): ≥128 mg/L | MIC MIN (Haemophilus influenzae): ≥128 mg/L | MIC 50% (Moraxella catarrhalis): 8 mg/L (≈ 4.94 µM) | MIC 90% (Moraxella catarrhalis): 16 mg/L (≈ 9.87 µM) | MIC MAX (Moraxella catarrhalis): ≥128 mg/L | MIC MIN (Moraxella catarrhalis): 2 mg/L (≈ 1.23 µM) | MIC 50% (Neisseria gonorrhoeae): ≥128 mg/L | MIC 90% (Neisseria gonorrhoeae): ≥128 mg/L | MIC MIN (Neisseria gonorrhoeae): 64 mg/L (≈ 39.5 µM) | MIC 50% (Neisseria meningitidis): 64 mg/L (≈ 39.5 µM) | MIC MAX (Neisseria meningitidis): ≥128 mg/L | MIC MIN (Neisseria meningitidis): 8 mg/L (≈ 4.94 µM) | MIC 50% (Helicobacter pylori): ≥128 mg/L | MIC 90% (Helicobacter pylori): ≥128 mg/L | MIC MAX (Helicobacter pylori): ≥128 mg/L | MIC MIN (Helicobacter pylori): ≥128 mg/L | MIC 50% (Bacteroides fragilis): ≥128 mg/L | MIC 90% (Bacteroides fragilis): ≥128 mg/L | MIC MAX (Bacteroides fragilis): ≥128 mg/L | MIC MIN (Bacteroides fragilis): ≥128 mg/L | MIC 50% (Clostridium difficile): 0.25 mg/L (≈ 0.154 µM) | MIC 90% (Clostridium difficile): 2 mg/L (≈ 1.23 µM) | MIC MAX (Clostridium difficile): 2 mg/L (≈ 1.23 µM) | MIC MIN (Clostridium difficile): 0.12 mg/L (≈ 0.074 µM) | MIC 50% (Clostridium perfringens): 1 mg/L (≈ 0.617 µM)
